Series [1] deals with human KOR receptor (Homo sapiens, UniProt P41145). Description: IP-One HTRF assay, potency of KOR agonists, dose-response in transiently transfected COS-7 cells. Format: cell-based. For orientation: Time-resolved FRET reads energy transfer from a long-lived donor to a nearby acceptor.

A value given as a limit tells only on which side of the number the result lay.

Sequence of human KOR receptor (P41145 whole entry): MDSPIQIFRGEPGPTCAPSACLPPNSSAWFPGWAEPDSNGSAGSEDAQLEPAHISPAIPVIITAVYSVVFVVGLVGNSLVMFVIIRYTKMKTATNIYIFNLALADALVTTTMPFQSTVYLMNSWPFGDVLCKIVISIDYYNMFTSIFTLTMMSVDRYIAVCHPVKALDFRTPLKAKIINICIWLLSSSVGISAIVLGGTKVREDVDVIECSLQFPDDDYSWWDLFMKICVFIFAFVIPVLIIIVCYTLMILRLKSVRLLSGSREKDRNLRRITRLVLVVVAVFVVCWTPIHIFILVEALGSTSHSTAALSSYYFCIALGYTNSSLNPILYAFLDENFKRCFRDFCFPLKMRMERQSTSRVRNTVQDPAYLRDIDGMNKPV

The EC50 is the concentration at which the effect is half-maximal. Read a low EC50 as a more potent agent. What is called melting point is the temperature, or range, at which the solid turns liquid. In turn, `CN(C(=O)Cc1ccc2c(c1)NC(=O)C2)[C@H](CN1CC[C@H](F)C1)c1cccc(-c2nn[nH]n2)c1` [Example 113, N-((S)-1-(3-(2H-tetrazol-5-yl)phenyl)-2-((S)-3-fluoropyrrolidin-1-yl)ethyl)-N-methyl-2-(2-oxoindolin-6-yl)acetamide] came in with a melting point of 175 to 177 °C. This compound also yielded an EC50 in series [1] of no more than 50 nM.
On to `CN(C(=O)Cc1ccc2c(c1)NS(=O)(=O)C2)[C@H](CN1CC[C@H](O)C1)c1ccccc1` [Example 136, 2-(2,2-dioxido-1,3-dihydrobenzo[c]isothiazol-6-yl)-N-((S)-2-((S)-3-hydroxypyrrolidin-1-yl)-1-phenylethyl)-N-methylacetamide], for which the melting point lay in the range of 232 to 234 °C. The compound also showed an EC50 in series [1] of no more than 50 nM.

These data come from patent US9487510B2, “Substituted heterocyclic acetamides as kappa opioid receptor (KOR) agonists” (Dr. Reddy's Laboratories Ltd., priority 2012, dated 2016).
